From patent publication US20250282799A1, “SUBSTITUTED PYRIDO[4,3-d]PYRIMIDINES AS KRAS MODULATORS” (Alterome Therapeutics, Inc., priority 2023, published 2025) come the findings set out here.

Each structure is given as a SMILES string. Bounds are passed on as bounds.

By IC50 is commonly meant the concentration that inhibits the measured activity by half.

This experiment deals with KRAS G12V dependent lung adenocarcinoma cell line, NCI-H441. The experiment in a line: Cellular pERK (Thr202/Tyr204) FRET/HTRF assay. The experiment is classed as cell-based. The conditions noted are these: Homo sapiens, NCI-H441, cellular pERK (Thr202/Tyr204) HTRF, NCI-H441 cells. In short, it runs like this:
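Using a mix-and-read HTRF kit, phospho-ERK (Thr202/Tyr204) was detected in NCI-H441 lysates following 1 hr compound incubation at 37 °C, 5% CO2. Cells had been seeded overnight beforehand, and IC50 was derived by curve fitting.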
A general note: TR-FRET usually uses a lanthanide donor and a delayed reading to cut background.
With `[2H]C([2H])(Oc1nc(N2CCOC[C@H]3[C@H](Cl)[C@H]32)c2cnc(-c3cccc4ccc(Cl)c(C#C)c34)c(F)c2n1)[C@@]12CCCN1C[C@H](F)C2` [Example 320, (1S,7S,8S)-8-chloro-2-(7-(7-chloro-8-ethynylnaphthalen-1-yl)-8-fluoro-2-(((2R,7aS)-2-fluorotetrahydro-1H-pyrrolizin-7a(5H)-yl)methoxy-d2)pyrido[4,3-d]pyrimidin-4-yl)-5-oxa-2-azabicyclo[5.1.0]octane], the IC50 was less than 50 nM.

In turn, `C#Cc1c(Cl)ccc2cc(N)cc(-c3ncc4c(N5CCOC[C@H]6[C@H](Cl)[C@H]65)nc(OC[C@@H]5CCCN5C)nc4c3F)c12` [Example 321, 6-chloro-4-(4-((1S,7S,8S)-8-chloro-5-oxa-2-azabicyclo[5.1.0]octan-2-yl)-8-fluoro-2-(((S)-1-methylpyrrolidin-2-yl)methoxy)pyrido[4,3-d]pyrimidin-7-yl)-5-ethynylnaphthalen-2-amine] gave an IC50 of less than 50 nM.

As for `C#Cc1cccc2cc(N)cc(-c3ncc4c(N5CCOC[C@H]6[C@H](Cl)[C@H]65)nc(OC[C@@H]5CCCN5C)nc4c3F)c12` [Example 322, 4-(4-((1S,7S,8S)-8-chloro-5-oxa-2-azabicyclo[5.1.0]octan-2-yl)-8-fluoro-2-(((S)-1-methylpyrrolidin-2-yl)methoxy)pyrido[4,3-d]pyrimidin-7-yl)-5-ethynylnaphthalen-2-amine], the IC50 is less than 50 nM. The compound `[2H]C([2H])(Oc1nc(N2CCOC[C@H]3[C@H](F)[C@H]32)c2c(OC(C)C)nc(-c3cc(N)cc4ccc(F)c(C#C)c34)c(F)c2n1)[C@@]12CCCN1C[C@H](F)C2` [Example 323, 5-ethynyl-6-fluoro-4-(8-fluoro-4-((1S,7S,8S)-8-fluoro-5-oxa-2-azabicyclo[5.1.0]octan-2-yl)-2-(((2R,7aS)-2-fluorotetrahydro-1H-pyrrolizin-7a(5H)-yl)methoxy-d2)-5-isopropoxypyrido[4,3-d]pyrimidin-7-yl)naphthalen-2-amine] registered an IC50 of less than 50 nM. As for `[2H]C([2H])(Oc1nc(N2CCOC[C@H]3[C@H](F)[C@H]32)c2cnc(-c3cc(O)cc4ccc(C)c(C#C)c34)c(F)c2n1)[C@@]12CCCN1C[C@H](F)C2` [Example 324, 5-ethynyl-4-(8-fluoro-4-((1S,7S,8S)-8-fluoro-5-oxa-2-azabicyclo[5.1.0]octan-2-yl)-2-(((2R,7aS)-2-fluorotetrahydro-1H-pyrrolizin-7a(5H)-yl)methoxy-d2)pyrido[4,3-d]pyrimidin-7-yl)-6-methylnaphthalen-2-ol], the figure is less than 50 nM; as for `[2H]C([2H])(Oc1nc(N2CCOC[C@H]3[C@H](F)[C@H]32)c2cnc(-c3cccc4ccc(C)c(C#C)c34)c(F)c2n1)[C@@]12CCCN1C[C@H](F)C2` [Example 325, (1S,7S,8S)-2-(7-(8-ethynyl-7-methylnaphthalen-1-yl)-8-fluoro-2-(((2R,7aS)-2-fluorotetrahydro-1H-pyrrolizin-7a(5H)-yl)methoxy-d2)pyrido[4,3-d]pyrimidin-4-yl)-8-fluoro-5-oxa-2-azabicyclo[5.1.0]octane], less than 50 nM; as for `C#Cc1c(Cl)ccc2cc(N)cc(-c3ncc4c(N5CCOC[C@@H]6[C@@H](Cl)[C@@H]65)nc(OC[C@@H]5CCCN5C)nc4c3F)c12` [Example 326, 6-chloro-4-(4-((1R,7R,8R)-8-chloro-5-oxa-2-azabicyclo[5.1.0]octan-2-yl)-8-fluoro-2-(((S)-1-methylpyrrolidin-2-yl)methoxy)pyrido[4,3-d]pyrimidin-7-yl)-5-ethynylnaphthalen-2-amine], 50 to 500 nM. On to `C#Cc1cccc2cc(N)cc(-c3ncc4c(N5CCOC[C@@H]6[C@@H](Cl)[C@@H]65)nc(OC[C@@H]5CCCN5C)nc4c3F)c12` [Example 327, 4-(4-((1R,7R,8R)-8-chloro-5-oxa-2-azabicyclo[5.1.0]octan-2-yl)-8-fluoro-2-(((S)-1-methylpyrrolidin-2-yl)methoxy)pyrido[4,3-d]pyrimidin-7-yl)-5-ethynylnaphthalen-2-amine], for which the IC50 was 50 to 500 nM. For the compound `[2H]C([2H])(Oc1nc(N2CCOC[C@H]3[C@H](F)[C@H]32)c2cc(C(F)(F)F)c(-c3cc(N)cc4ccc(F)c(C#C)c34)c(F)c2n1)[C@@]12CCCN1C[C@H](F)C2` [Example 328, 5-ethynyl-6-fluoro-4-(8-fluoro-4-((1S,7S,8S)-8-fluoro-5-oxa-2-azabicyclo[5.1.0]octan-2-yl)-2-(((2R,7aS)-2-fluorotetrahydro-1H-pyrrolizin-7a(5H)-yl)methoxy-d2)-6-(trifluoromethyl)quinazolin-7-yl)naphthalen-2-amine], the IC50 fell in the range of 500 to 10000 nM. As for `[2H]C([2H])(Oc1nc(N2CCOC[C@H]3[C@H](F)[C@H]32)c2cnc(-c3cc(N)cc4ccc(F)c(C#C)c34)c(C)c2n1)[C@@]12CCCN1C[C@H](F)C2` [Example 329, 5-Ethynyl-6-fluoro-4-(4-((1S,7S,8S)-8-fluoro-5-oxa-2-azabicyclo[5.1.0]octan-2-yl)-2-(((2R,7aS)-2-fluorotetrahydro-1H-pyrrolizin-7a(5H)-yl)methoxy-d2)-8-methylpyrido[4,3-d]pyrimidin-7-yl)naphthalen-2-amine], the figure is less than 50 nM; as for `[2H]C([2H])(Oc1nc(N2CCOC[C@H]3[C@H](F)[C@H]32)c2cnc(-c3cc(O)c(F)c(C)c3C(F)(F)F)c(F)c2n1)[C@@]12CCCN1C[C@H](F)C2` [Example 330, 2-fluoro-5-(8-fluoro-4-((1S,7S,8S)-8-fluoro-5-oxa-2-azabicyclo[5.1.0]octan-2-yl)-2-(((2R,7aS)-2-fluorotetrahydro-1H-pyrrolizin-7a(5H)-yl)methoxy-d2)pyrido[4,3-d]pyrimidin-7-yl)-3-methyl-4-(trifluoromethyl)phenol], 50 to 500 nM.

Regarding `[2H]C([2H])(Oc1nc(N2CCOC[C@H]3[C@H](F)[C@H]32)c2cnc(-c3cc(N)cc4ccc(C)c(C#C)c34)c(F)c2n1)[C@@]12CCCN1C[C@H](F)C2` [Example 331, 5-Ethynyl-4-(8-fluoro-4-((1S,7S,8S)-8-fluoro-5-oxa-2-azabicyclo[5.1.0]octan-2-yl)-2-(((2R,7aS)-2-fluorotetrahydro-1H-pyrrolizin-7a(5H)-yl)methoxy-d2)pyrido[4,3-d]pyrimidin-7-yl)-6-methylnaphthalen-2-amine], the IC50 was less than 50 nM. As for `[2H]C([2H])(Oc1nc(N2CCOC[C@H]3[C@H](F)[C@H]32)c2cnc(-c3cccc4ccc(C(F)(F)F)c(C#C)c34)c(F)c2n1)[C@@]12CCCN1C[C@H](F)C2` [Example 332, (1S,7S,8S)-2-(7-(8-ethynyl-7-(trifluoromethyl)naphthalen-1-yl)-8-fluoro-2-(((2R,7aS)-2-fluorotetrahydro-1H-pyrrolizin-7a(5H)-yl)methoxy-d2)pyrido[4,3-d]pyrimidin-4-yl)-8-fluoro-5-oxa-2-azabicyclo[5.1.0]octane], the figure is 50 to 500 nM; as for `[2H]C([2H])(Oc1nc(N2CCOC[C@H]3[C@H](F)[C@H]32)c2cnc(-c3cc(N)cc4ccc(F)c(C#C)c34)c(F)c2n1)[C@@]12CCCN1[C@H](C)[C@H](F)C2` [Example 333, 5-Ethynyl-6-fluoro-4-(8-fluoro-2-(((2R,3R,7aS)-2-fluoro-3-methyltetrahydro-1H-pyrrolizin-7a(5H)-yl)methoxy-d2)-4-((1S,7S,8S)-8-fluoro-5-oxa-2-azabicyclo[5.1.0]octan-2-yl)pyrido[4,3-d]pyrimidin-7-yl)naphthalen-2-amine], less than 50 nM; as for `[2H]C([2H])(Oc1nc(N2CCOC[C@H]3[C@H](F)[C@H]32)c2cnc(-c3cc(N)cc4ccc(F)c(C#C)c34)c(F)c2n1)[C@@]12CCCN1[C@@H](C)[C@H](F)C2` [Example 334, 5-ethynyl-6-fluoro-4-(8-fluoro-2-(((2R,3S,7aS)-2-fluoro-3-methyltetrahydro-1H-pyrrolizin-7a(5H)-yl)methoxy-d2)-4-((1S,7S,8S)-8-fluoro-5-oxa-2-azabicyclo[5.1.0]octan-2-yl)pyrido[4,3-d]pyrimidin-7-yl)naphthalen-2-amine], less than 50 nM.

`[2H]C([2H])(Oc1nc(N2CCOC[C@H]3[C@H](F)[C@H]32)c2cnc(-c3cc(O)cc(C)c3C(F)(F)F)c(F)c2n1)[C@@]12CCCN1C[C@H](F)C2` [Example 335, 3-(8-fluoro-4-((1S,7S,8S)-8-fluoro-5-oxa-2-azabicyclo[5.1.0]octan-2-yl)-2-(((2R,7aS)-2-fluorotetrahydro-1H-pyrrolizin-7a(5H)-yl)methoxy-d2)pyrido[4,3-d]pyrimidin-7-yl)-5-methyl-4-(trifluoromethyl)phenol]: the IC50 was less than 50 nM. With `C#Cc1c(C(F)(F)F)ccc2cccc(-c3ncc4c(N5CCOC[C@H]6[C@H](F)[C@H]65)nc(OC[C@]56C[C@@H](F)CN5C[C@@H](CN)C6)nc4c3F)c12` [Example 336, ((2R,6R,7aS)-7a-(((7-(8-ethynyl-7-(trifluoromethyl)naphthalen-1-yl)-8-fluoro-4-((1S,7S,8S)-8-fluoro-5-oxa-2-azabicyclo[5.1.0]octan-2-yl)pyrido[4,3-d]pyrimidin-2-yl)oxy)methyl)-6-fluorohexahydro-1H-pyrrolizin-2-yl)methanamine] the figure was 500 to 10000 nM. With `[2H]C([2H])(Oc1nc(N2CCOC[C@H]3[C@H](F)[C@H]32)c2cnc(-c3cc(N)cc4ccc(Cl)c(C#C)c34)c(F)c2n1)[C@@]12CCCN1[C@H](C)[C@H](F)C2` [Example 337, 6-chloro-5-ethynyl-4-(8-fluoro-2-(((2R,3R,7aS)-2-fluoro-3-methyltetrahydro-1H-pyrrolizin-7a(5H)-yl)methoxy-d2)-4-((1S,7S,8S)-8-fluoro-5-oxa-2-azabicyclo[5.1.0]octan-2-yl)pyrido[4,3-d]pyrimidin-7-yl)naphthalen-2-amine] the figure was less than 50 nM.
